Experiment [1] addresses T1, Dvl2PDZ (Homo sapiens, UniProt O14641).
T1 construct: protein fragments spanning amino acids 248-364 of the full-length Dvl2 were produced; made in house; host or cells: E. coli (pGEX system)
T1 sequence (O14641 248-364): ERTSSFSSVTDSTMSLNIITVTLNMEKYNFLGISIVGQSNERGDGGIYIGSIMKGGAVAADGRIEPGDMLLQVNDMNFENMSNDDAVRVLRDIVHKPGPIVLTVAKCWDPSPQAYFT
The experiment in a line: Fluorescence polarization assay, peptides binding to Dvl2PDZ. As for the experimental part:
The binding affinities of synthetic peptides were also measured by Flourescence polarization assay. Serial dilution of purified Dvl2PDZ domain polypeptide (1-10 μM) was incubated with 10 nM probe peptide (FAM-KWYGWL-COOH) (SEQ ID NO: 169) in PBS, 0.1% Triton X100 as 30 μl volume in 96-well black HE96 plates (LJL Biosystem, Inc, Calif.), and incubated for 15 minutes at room temperature. Polarization measurements were performed in Analyst platereader (LJL Biosystems, Inc., Sunnyvale, Calif.). Ks=536 nM was derived from this assay by non-linear regression fitting with KaleidaGraph™. Competition experiments were performed by addition of serial dilution of the free peptides (0-500 μM) to solution with 10 nM probe and 1 μM Dvl2PDZ. The polarization was measured and IC50 values were derived as described above. Ki values were calculated as described previously.
Background: Fluorescence polarisation rises when a labelled molecule tumbles more slowly, as on binding a larger partner.

Experiment [2] addresses T1, Dvl2PDZ. The experiment can be described thus: Competition ELISA, peptides binding to Dvl2PDZ. From the text:
Many methods are known and can be used to identify the binding affinities of binding molecules (e.g. peptides, proteins, small molecules, etc.); for example, binding affinities can be determined as IC50 values using competition ELISAs. The IC50 value is defined as the concentration of binder which blocks 50% of Dvl PDZ domain binding to a ligand. For example, in solid phase assays, assay plates may be prepared by coating microwell plates (preferably treated to efficiently adsorb protein) with neutravidin, avidin or streptavidin. […] After further washing, the binding reactions are detected, often with an antibody recognizing the non-PDZ fusion partner and a labeled (such as horseradish peroxidase (HRP), alkaline phosphatase (AP), or a fluorescent tag such as fluorescein) secondary antibody recognizing the primary antibody. The plates are then developed with the appropriate substrate (depending on the label) and the signal quantified, such as using a spectrophotometric plate reader. […] Thus the ability of the various molecules to inhibit PDZ domain from binding a known PDZ domain binder can be measured.
Affinity assays—The binding affinities of peptides for Dvl2PDZ were determined as IC50 values using a competition ELISA, as previously described. […]

Experiment [3] relates to β-catenin protein level in HEK293S cells. The experiment can be described thus: Western blot of β-catenin protein level in HEK293S cells. The settings on record: 20 μM peptide, 24 hours, compared to DMSO and PEN. Type of experiment: cell-based. As for the experimental part: HEK293S cells were treated with 20 μM DVLp and PEN for 24 hours. Cell lysate was prepared and subjected to SDS-PAGE. β-catenin was blotted by poly-clonal anti-β-catenin (Genentech, Inc., South San Francisco).
(§1) Cell culture, transfection and peptide treatment: HEK293 and H1703 were propagated according to the instructions from American Type Culture Collection. HEK293 cells were transfected with FuGene6 according to the manufacturer's instructions (Roche Molecular Biochemicals) at cell confluence of 50%. H1703 cells were transfected with Lipofectamine according to manufacturer's instruction at cell confluence of 80%. Cells were treated with medium containing peptide (5 μM-40 μM) 24 hours after transfection, and were routinely harvested 24 hours after the peptide treatment for additional assays.
Western Blot: Harvested cells were lysed with SIC lysis buffer, the supernatant was subjected to SDS-PAGE, which was transferred, blocked and blotted with proper primary antibody by a standard western blot protocol. Fluorescence labeled secondary antibodies (Alexa goat anti-mouse or anti-rabbit) were added and the results were analyzed by Li-core™.

In experiment [4] the test system is Wnt3a-stimulated β-catenin signaling in HEK293S cells. The experiment can be described thus: TOPGLOW luciferase reporter assay in HEK293S cells. Type of experiment: cell-based. The settings on record: for Effect on Wnt3a-stimulated transcriptional activity (TopGlow): peptide up to 20 μM in medium. As for the experimental part:
HEK293S cells were transfected with the reporter plasmid pTOPGLOW combined with pRL reporter. Cell extract was prepared and the luciferase activity was measured. The relative luciferase unit (RLU) is TopGlow luciferase activity divided by Renila luciferase activity. The fold of activation is the RLU ratio between the Wnt3a-stimulated and non-stimulated cells. Cells were treated with either 10 μM (light bar) or 20 μM (dark bar) peptide ligands.
as §1
TOPGLOW assay: Cells were plated in 12-well plates. The TOPGLOW reporter plasmid was transfected transiently into cells as described above. TCF-mediated gene transcription was determined by pTOPGLOW luciferase activity, which was normalized to relative luciferase activities of pRL reporter (cotransfected internal control). All experiments were performed duplicated.
On the technique in general: A reporter such as luciferase makes a cellular process visible.

Entries after “also recorded” stand apart in the source; their conditions may differ. No end group written: not given here.

The text below walks through data of patent publication US7977064B2, “Disheveled PDZ modulators” (Genentech, Inc., priority 2006, dated 2011).

As for “Ac-GEIVLWSDIPG-NH2 [Peptide N3, G E I V L W S D I P G]”, the “Affinity lower than that of D1” value at Dvl2PDZ [1] (ratio of Ki values) came to 6 fold.

As usually defined, the IC50 is the concentration at which inhibition is half-maximal. As for Ac-KGFGML-OH [Peptide D5, K G F G M L], at Dvl2PDZ [2], the IC50 is 242000 nM. In the case of Ac-KWYGWF [Peptide D2, K W Y G W F], at Dvl2PDZ [2], the IC50 was 930 nM. For orientation: Ki means a dissociation constant, usually derived from enzyme kinetics or from competition with a known ligand. As for Ac-KWYGWL-OH [Peptide D1, K W Y G W L], on Dvl2PDZ [1] (competition with 10 nM FAM-KWYGWL-COOH probe, 1 μM Dvl2PDZ, read-out: Ki measured by Flourescence polarization assay), the Ki is 725 nM. In the case of Ac-RQTKIVWFQNRRMKKGEIVLWSDIPG [DVLp_N3], the “β-catenin level in whole cell lysate upon Wnt3a stimulation” value in experiment [3] was “significantly lower β-catenin levels”; in experiment [3] (listed as Dvlp_N3) it was “reduced the Wnt-stimulated increase in β-catenin protein level”. For the same substance, the “Effect on Wnt3a-stimulated transcriptional activity (TopGlow)” value in experiment [4] (HEK293S cells) is recorded as “inhibited Wnt3a-stimulated transcriptional activity significantly; also recorded: blocked the Wnt-stimulated β-catenin signaling”; in experiment [4] (HEK293S cells, listed as Dvlp_N3), “significantly blocked the Wnt-stimulated increase in β-catenin signaling”. The “Dose dependence of inhibition of Wnt-stimulated β-catenin signaling” value in experiment [4] (HEK293S cells, two independent experiments) is “dose-dependent”. The “Inhibition of Wnt3a-stimulated transcriptional activity” value in experiment [4] (HEK293 cells, peptide 5-20 μM) is listed as “up to 80%”. Consider “Ac-RQTKIWFQNRRMKWKK [PEN, reference compound]”, for which the “Effect on Wnt3a-stimulated transcriptional activity (TopGlow)” value in experiment [4] (HEK293S cells) is listed as “did not show an inhibition effect”.
